Test results taken from patent publication US4593090A, “Novel nitrosourea compounds, method for preparing same, and pharmaceutical composition containing same” (Gogo Kimura, priority 1981, dated 1986).
Where two headings read alike, the source gives them in different places.

Columns and labels:
[1] = Diuretic activity, acute sodium loaded mouse screening test; format: in vivo, male mice; details: 50 mg/kg oral in 1% saline; for Cl^- / K^+ / Na^+: urine
Description: The diuretic activity of the compounds of this invention was assayed by the diuresis screening test referred to as "acute sodium loaded mouse". This test was carried out by the following method.
The acute sodium loaded mouse screening test was carried out by using a 10-membered group of male mice (each weighing 18 to 24 g). Test compounds were incorporated in 1% saline (NaCl) solution and orally administered in a volume of 10 ml/kg. The mice were placed in metabolic cages. Each treated group consisted of 10-members. Five members were placed in one cage. Tests were conducted by oral administrations of (A) 1% saline (NaCl) solution to the control group and (B) 1% saline (NaCl) solution containing a test compound according to this invention.
The determination was carried out for sodium, potassium, and chlorine in each pooled urine sample. The determination of sodium and potassium was carried out by flame photometer. Chlorine was determined by chloride analysis apparatus. The analytical values of sodium, potassium, and chlorine were shown with an average mg equivalent (m Eq)/Kg/5 hours, and the diuretic activity was shown with an average urine volume (ml)/Kg/5 hours.

Ehrlich acites carcinoma = assay: Growth-inhibiting effect against Ehrlich acites carcinoma; format: in vivo, male mice; details: Mus musculus, Ehrlich, 120 h, 5 days; for response vs control in vivo at 25 mg/kg: 25 mg/kg/day ip; for response vs control in vivo at 100 mg/kg: 100 mg/kg/day ip
Outline: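 Activity graded from T/C% of total packed ascites cell volume on day 7 (treated vs untreated): - 100-66, + 65-41, ++ 40-11, +++ 10-0. Groups of 6 male mice bore 1×10^7 i.p.-implanted cells and received compound (1% Nikkol HCO-60) i.p. daily for 5 days from 24 hrs after implantation.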

[2] = Acute toxicity (LD50, Behrens-Karber method); format: in vivo, ICR mice; details: mouse, in vivo, ip, mortality during 30 days
Description: Test compounds, dissolved or suspended in 0.5% aqueous CMC, were each intraperitoneally administered to ICR mice in a dose of 0.1 ml per 10 g body weight. LD50 (mg/kg) value of each test compound was calculated from the mortality of mice during 30 days by the Behrens-Karber method.

Leukemia L1210 [3] = assay: Activity against Leukemia L1210, intraperitoneal, increase in life span of mice; format: in vivo, female mice (BDF1 family); details: for ED (maximum ILS) / ED30: Mus musculus, L1210, ip, ip once a day for 5 successive days; for ED (maximum ILS): daily dosage giving maximum increase of life span, read-out: O.D. (optimum dosage); for ED30: daily dosage increasing average survival days by 30%, read-out: ILS30; for Survivors after 60 days / Max. ILS % / Therapeutic ratio TR: ip; for Survivors after 60 days: 6-membered group; for Max. ILS %: 60-day observation, versus control; for Therapeutic ratio TR: O.D./ILS30
Outline: (§1)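 L1210 cells (1×10^5) into abdominal cavity of female BDF1 mice, 20–23 g, n=6/group. Dosing 24 h post-implant, ip or po, qd ×5. 60-day observation; ILS% = mean survival vs untreated control; T.R. = O.D./ILS 30.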

Leukemia L1210 [4] = assay: Activity against Leukemia L1210, oral, increase in life span of mice; format: in vivo, female mice (BDF1 family); details: for ED (maximum ILS) / ED30: Mus musculus, L1210, oral once a day for 5 successive days; for ED (maximum ILS): daily dosage giving maximum increase of life span, read-out: O.D. (optimum dosage); for ED30: daily dosage increasing average survival days by 30%, read-out: ILS30; for Survivors after 60 days / Max. ILS % / Therapeutic ratio TR: oral; for Survivors after 60 days: 6-membered group; for Max. ILS %: 60-day observation, versus control; for Therapeutic ratio TR: O.D./ILS30
Outline: as §1

Row | Compound | Urine volume [1] [ml/kg/5 hrs.] | Cl^- [1] [mEq/kg/5 hrs.] | K^+ [1] [mEq/kg/5 hrs.] | Na^+ [1] [mEq/kg/5 hrs.] | response vs control in vivo at 25 mg/kg (Ehrlich acites carcinoma; read-out: Activity) [%] | response vs control in vivo at 25 mg/kg (Ehrlich acites carcinoma; read-out: T/C %) [%] | response vs control in vivo at 100 mg/kg (Ehrlich acites carcinoma; read-out: Activity) [%] | response vs control in vivo at 100 mg/kg (Ehrlich acites carcinoma; read-out: T/C %) [%] | LD50 at 720 h [2] [mg/kg] | ED (maximum ILS) (Leukemia L1210 [3]) [mg/kg] | ED30 (Leukemia L1210 [3]) [mg/kg] | Survivors after 60 days (Leukemia L1210 [3]) | Max. ILS % (Leukemia L1210 [3]) [%] | Therapeutic ratio TR (Leukemia L1210 [3]) | ED (maximum ILS) (Leukemia L1210 [4]) [mg/kg] | ED30 (Leukemia L1210 [4]) [mg/kg] | Survivors after 60 days (Leukemia L1210 [4]) | Max. ILS % (Leukemia L1210 [4]) [%] | Therapeutic ratio TR (Leukemia L1210 [4])
1 | CC(C)CO[C@H]1O[C@H](CN(CC2CCCO2)C(=O)N(CCCl)N=O)[C@@H](O)[C@H](O)[C@H]1O (stereo partly drawn) [Compound 23, 3-tetrahydrofurfuryl-3-(isobutyl α-D-glucopyranose-6-yl)-1-(2-chloroethyl)-1-nitrosourea] | 10.2 | 0.8 | 1.0 | 0.7 | 0 to 10 | 0 | 0 to 10 | 0 | 620 | 200 | 3 | 5/6 | > 630 | 66.7 | 250 | 8.74 | 5/6 | > 625 | 28.6
2 | COCCN(C[C@H]1O[C@H](OC2CCCCC2)[C@H](O)[C@@H](O)[C@@H]1O)C(=O)N(CCCl)N=O [Compound 39, 3-(2-methoxyethyl)-3-(cyclohexyl α-D-glucopyranose-6-yl)-1-(2-chloroethyl)-1-nitrosourea] | 9.2 | 0.7 | 0.8 | 0.6 | 0 to 10 | 0 | 0 to 10 | 0 | 510 | 170 | 2.47 | 6/6 | > 700 | 68.8 | 220 | 7.43 | 5/6 | > 635 | 29.6
3 | COCCN(C[C@H]1O[C@H](OCC(C)C)[C@@H](O)[C@@H](O)[C@@H]1O)C(=O)N(CCCl)N=O [Compound 135, 3-(2-methoxyethyl)-3-(isobutyl α-D-mannopyranose-6-yl)-1-(2-chloroethyl)-1-nitrosourea] | 9.7 | 0.8 | 0.9 | 0.7 | 0 to 10 | 0 | 0 to 10 | 0 | 620 | 200 | 2.92 | 6/6 | > 700 | 68.5 | 240 | 9.92 | 6/6 | > 700 | 24.2
